Where two headings read alike, the source gives them in different places.
What was measured:
[1] = target: T1, glucocorticoid receptor (Homo sapiens, UniProt P04150); experiment: Glucocorticoid Receptor Binding Assay (fluorescence polarisation, displacement of Alexa 555 labelled dexamethasone derivative); settings: at least once in this assay; read-out: glucocorticoid binding pIC50 (converted)
T1 construct: a partially purified full length glucocorticoid receptor
T1 sequence (P04150 1-777): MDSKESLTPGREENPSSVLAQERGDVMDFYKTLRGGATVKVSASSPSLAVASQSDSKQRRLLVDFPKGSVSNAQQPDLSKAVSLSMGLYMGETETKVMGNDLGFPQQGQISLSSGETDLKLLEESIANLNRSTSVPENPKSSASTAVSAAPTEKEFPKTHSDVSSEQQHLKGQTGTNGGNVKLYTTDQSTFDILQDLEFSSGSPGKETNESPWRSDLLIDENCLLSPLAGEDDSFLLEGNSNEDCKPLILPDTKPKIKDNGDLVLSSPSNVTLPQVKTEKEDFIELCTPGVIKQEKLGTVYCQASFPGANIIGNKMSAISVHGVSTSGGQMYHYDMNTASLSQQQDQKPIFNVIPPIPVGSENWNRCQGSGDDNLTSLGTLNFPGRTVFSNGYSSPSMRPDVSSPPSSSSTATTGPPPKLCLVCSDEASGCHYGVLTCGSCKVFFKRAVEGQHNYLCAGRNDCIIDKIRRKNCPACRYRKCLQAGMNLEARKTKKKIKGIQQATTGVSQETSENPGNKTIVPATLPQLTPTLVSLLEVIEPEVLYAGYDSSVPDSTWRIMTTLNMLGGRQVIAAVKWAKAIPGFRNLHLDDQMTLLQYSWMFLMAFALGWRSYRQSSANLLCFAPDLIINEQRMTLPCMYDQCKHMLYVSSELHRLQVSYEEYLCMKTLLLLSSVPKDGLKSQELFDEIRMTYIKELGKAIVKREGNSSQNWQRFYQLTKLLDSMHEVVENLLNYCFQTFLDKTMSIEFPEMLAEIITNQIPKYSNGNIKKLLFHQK
In short: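 Partially purified full-length GR incubated with test compound and fluorescent dexamethasone plus GR-stabilising buffer components, 2 hr at room temperature in the dark. Binding scored as displacement of tracer, read as decrease in fluorescence polarisation.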

[2] = target: T2, GR (Homo sapiens, UniProt P04150); experiment: GR Functional Assay - NFκB Assay (A549 SPAP cells, TNFα stimulated); type: cell-based; settings: for Emax: agonists, read-out: average maximum asymptote in the NFkB assay
T2 construct: endogenous in cells; host or cells: A549 (human lung carcinoma, ECACC No. 86012804), stably transfected with reporter plasmids only
T2 sequence (P04150 1-777): T1 sequence (P04150 1-777)
In short: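 Stably transfected A549 SPAP cells at 0.16×10^6/ml in DMEM with 10% FCS were added to compound and stimulated with TNFα to drive NFκB-dependent SPAP expression. After 1 hr equilibration at room temperature, SPAP was read colorimetrically with pNPP in diethanolamine buffer, pH 9.8.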

[3] = Assay for Brain Penetrance; type: in vivo; settings: brain and plasma, rat, single intravenous dose 1 mg/kg, read-out: brain to plasma ratio
Procedure: Each rat received a single intravenous dose at a level of 1 mg/kg. The dose was formulated in 10% DMSO/50% PEG200/40% sterile water. Terminal blood samples were taken at 5 or 15 mins after dosing, by cardiac puncture following anaesthesia with isofluorane. The brains were removed at the same time point.
The compounds were extracted from 20 μL plasma by protein precipitation using 120 μL acetonitrile containing an analogue compound as an internal standard. The filtered extracts were collected into a 96 well plate and were diluted with an equal volume of 10% acetonitrile containing 0.1% formic acid in water (v/v). The plate was then mixed on a plate shaker for at least 5 mins before analysis by LC-MS/MS against a calibration line prepared in control plasma.
Each brain was weighed, then homogenised in 3 ml acetonitrile:water (10:90v/v). The compounds were extracted from 200 μL of the resulting homogenate by protein precipitation using 600 μL acetonitrile containing an analogue compound as an internal standard. The extracts were centrifuged and 150 μl of each was filtered and transferred to a 96 well plate. The aliquot was diluted with 10% acetonitrile containing 0.1% formic acid in water (v/v). The plate was mixed on a plate shaker for at least 5 mins before analysis by LC-MS/MS against a calibration line prepared in control brain homogenate.

[4] = at least once in the NFkB assay, A549 SPAP cells, read-out: pIC50 in the NFkB assay (converted)
[5] = at least once, examples listed as agonists in NFkB and MMTV assays, read-out: potency pIC50 in the NFKB assay (converted)

IC50 [1]	Emax ([2]; A549 SPAP cells)	IC50 [2, 4]	IC50 [2, 5]	Kp at 5 min [3]	Compound
< 1000 nM	≥ 40%	< 1000 nM	< 316 nM	≥ 0.1	Nc1c(C(=O)NCC(O)(CN(CCF)C(=O)c2ccccc2)C(F)(F)F)cnn1-c1ccc(F)cc1 (racemic) [Example 1 (racemic), 5-Amino-1-(4-fluorophenyl)-N-(3,3,3-trifluoro-2-{[(2-fluoroethyl)(phenylcarbonyl)amino]methyl}-2-hydroxypropyl)-1H-pyrazole-4-carboxamide]
< 1000 nM	≥ 40%	< 1000 nM	< 316 nM	≥ 0.1	Nc1c(C(=O)NCC(O)(CN(CCF)C(=O)c2ccccc2F)C(F)(F)F)cnn1-c1ccc(F)cc1 (racemic) [Example 2 (racemic), 5-Amino-1-(4-fluorophenyl)-N-[3,3,3-trifluoro-2-([(2-fluoroethyl)[(2-fluorophenyl)carbonyl]amino]methyl)-2-hydroxypropyl]-1H-pyrazole-4-carboxamide]
< 1000 nM	≥ 40%	< 1000 nM	< 316 nM	≥ 0.1	CCN(CC(O)(CNC(=O)c1cnn(-c2ccc(F)cc2)c1N)C(F)(F)F)C(=O)c1cccc(F)c1F (racemic) [Example 5 (racemic), 5-Amino-N-(2-{[[(2,3-difluorophenyl)carbonyl](ethyl)amino]methyl}-3,3,3-trifluoro-2-hydroxypropyl)-1-(4-fluorophenyl)-1H-pyrazole-4-carboxamide]

— US20100035926A1, “PYRAZOLE DERIVATIVES AS NON-STEROIDAL GLUCOCORTICOID RECEPTOR LIGANDS” (priority 2006, published 2010)
